# What was measured:
# mouse [1] = settings: Carcinogenicity, b6c3f1, Oral, Water, dose end: 104 week, group: systemic
# rat [2] = settings: Combined chronic toxicity/carcinogenicity; sprague dawley; Oral; Water; dose end: 24 month; group: systemic; systemic / in life observation / mortality / mortality + systemic / pathology gross / kidney / calculus + systemic / pathology gross / …
# rat [3] = settings: Subchronic oral toxicity in rodents, sprague dawley, Water, dose end: 13 week, group: systemic
# mouse [4] = settings: Subchronic oral toxicity in rodents, b6c3f1, Water, dose end: 13 week, group: systemic
# rabbit = settings: Prenatal developmental toxicity study, dutch, Oral, Gavage/Intubation, dose end: 18 GD
# rat [5] = settings: Chronic toxicity, fischer, Oral, Gavage/Intubation, dose end: 2 year, group: systemic
# rat [6] = settings: Subchronic oral toxicity in rodents, fischer, Gavage/Intubation, dose end: 13 week, group: systemic
# mouse [7] = settings: Chronic toxicity; b6c3f1; Oral; Gavage/Intubation; dose end: 2 year; group: systemic; systemic / pathology microscopic / kidney / necrosis + systemic / pathology microscopic / kidney / regeneration + systemic / pathology …
# mouse [8] = settings: Subchronic oral toxicity in rodents, b6c3f1, Gavage/Intubation, dose end: 13 week, group: systemic
# mouse [9] = settings: Subchronic oral toxicity in rodents, b6c3f1, Water, dose end: 13 week, group: systemic; remark: listed apart in the source
# rat [10] = settings: Subchronic oral toxicity in rodents, fischer, Water, dose end: 13 week, group: systemic
# mouse [11] = settings: Carcinogenicity, b6c3f1, Oral, Water, dose end: 103 week, group: systemic
# rat [12] = settings: Carcinogenicity; fischer; Oral; Water; dose end: 103 week; group: systemic; systemic / pathology microscopic / liver / neoplastic nodule + systemic / pathology microscopic / liver / cellular alteration + systemic / …
# rat [13] = settings: Sub-acute repeat dose toxicity, fischer, Oral, Water, dose end: 14 day, group: systemic
# mouse [14] = settings: Sub-acute repeat dose toxicity, b6c3f1, Oral, Water, dose end: 14 day, group: systemic
# [15] = systemic / in life observation / clinical signs / distended abdomens + systemic / urinalysis / sodium / sodium
# [16] = systemic / clinical chemistry / protein / protein
# [17] = systemic / pathology gross / urinary bladder / calculus + systemic / pathology microscopic / urinary bladder / hyperplasia
# [18] = systemic / pathology gross / urinary bladder / calculus
# [19] = systemic / pathology gross / urinary bladder / calculus + systemic / pathology microscopic / urinary bladder / congestion
# [20] = group: developmental, developmental / developmental malformation / general / crown-rump length + systemic / in life observation / body weight / fetal weight
# [21] = group: maternal, systemic / in life observation / body weight / body weight
# [22] = systemic / in life observation / body weight / body weight + systemic / pathology microscopic / kidney / hyperplasia + systemic / pathology …
# [23] = systemic / pathology microscopic / intestine small / pigmentation + systemic / pathology microscopic / kidney / hemosiderosis + systemic / …
# [24] = systemic / pathology microscopic / intestine small / pigmentation + systemic / pathology microscopic / stomach / acanthosis + systemic / …
# [25] = systemic / organ weight / kidney / absolute + systemic / organ weight / kidney / relative to body weight + systemic / organ weight / liver…
# [26] = systemic / in life observation / body weight / body weight + systemic / pathology microscopic / liver / hyperplasia + systemic / pathology …
# [27] = systemic / in life observation / water consumption / water consumption
# [28] = systemic / in life observation / body weight / body weight + systemic / in life observation / water consumption / water consumption + …
# [29] = systemic / pathology microscopic / kidney / nephropathy
# [30] = systemic / pathology microscopic / kidney / nephropathy + systemic / pathology microscopic / blood / lymphoma nos
# [31] = systemic / in life observation / body weight / body weight + systemic / in life observation / body weight / body weight gain + systemic / in…
# [32] = systemic / in life observation / body weight / body weight gain + systemic / in life observation / water consumption / water consumption + …
structure (smiles),measurement,setting,value
O=c1[n-]c(=O)[nH]c(=O)[nH]1.[Na+] [Sodium cyanurate],LEL,mouse [1]; systemic / in life observation / body weight / body weight gain,100 mg/kg/day
same,NEL,mouse [1]; systemic / in life observation / body weight / body weight gain + systemic / in life observation / clinical signs / distended abdomens + …,25.9 mg/kg/day
same,LOAEL,mouse [1]; [15],> 1520 mg/kg/day
same,NOAEL,mouse [1]; [15],≥ 1520 mg/kg/day
same,LEL,rat [2],371 mg/kg/day
same,LOAEL,rat [2],371 mg/kg/day
same,NEL,rat [2],154 mg/kg/day
same,NOAEL,rat [2],154 mg/kg/day
same,LEL,rat [3]; [16],132 mg/kg/day
same,NEL,rat [3]; [16],< 132 mg/kg/day
same,LOAEL,rat [3]; [17],> 672 mg/kg/day
same,NOAEL,rat [3]; [17],≥ 672 mg/kg/day
same,LEL,mouse [4]; [18],252 mg/kg/day
same,NEL,mouse [4]; [18],< 252 mg/kg/day
same,LOAEL,mouse [4]; [19],1990 mg/kg/day
same,NOAEL,mouse [4]; [19],522 mg/kg/day
same,LEL,rabbit; [20],500 mg/kg/day
same,LOAEL,rabbit; [20],500 mg/kg/day
same,NEL,rabbit; [20],200 mg/kg/day
same,NOAEL,rabbit; [20],200 mg/kg/day
same,LEL,rabbit; [21],200 mg/kg/day
same,LOAEL,rabbit; [21],200 mg/kg/day
same,NEL,rabbit; [21],50 mg/kg/day
same,NOAEL,rabbit; [21],50 mg/kg/day
"Cl.Cl.Nc1ccc(O)c(N)c1 [2,4-Diaminophenol dihydrochloride]",LOAEL,rat [5]; [22],25 mg/kg/day
same,NOAEL,rat [5]; [22],12.5 mg/kg/day
same,LEL,rat [5]; [23],12.5 mg/kg/day
same,NEL,rat [5]; [23],< 12.5 mg/kg/day
same,LOAEL,rat [6]; systemic / organ weight / kidney / relative to body weight + systemic / pathology microscopic / kidney / necrosis,25 mg/kg/day
same,NOAEL,rat [6]; systemic / organ weight / kidney / relative to body weight + systemic / pathology microscopic / kidney / necrosis + systemic / in life …,12 mg/kg/day
same,LEL,rat [6]; [24],12 mg/kg/day
same,NEL,rat [6]; [24],< 12 mg/kg/day
same,LEL,mouse [7],19 mg/kg/day
same,LOAEL,mouse [7],19 mg/kg/day
same,NEL,mouse [7],< 19 mg/kg/day
same,NOAEL,mouse [7],< 19 mg/kg/day
same,LEL,mouse [8]; [25],5 mg/kg/day
same,NEL,mouse [8]; [25],< 5 mg/kg/day
same,NOAEL,mouse [8]; [25],19 mg/kg/day
same,LOAEL,mouse [8]; systemic / pathology microscopic / kidney / regeneration,38 mg/kg/day
"Cl.Cl.Nc1ccc(Cc2ccc(N)cc2)cc1 [4,4'-Methylenedianiline dihydrochloride]",LOAEL,mouse [9]; [26],60 mg/kg/day
same,NOAEL,mouse [9]; [26],30 mg/kg/day
same,LEL,mouse [9]; [27],3.75 mg/kg/day
same,NEL,mouse [9]; [27],< 3.75 mg/kg/day
same,LOAEL,rat [10]; [28],20 mg/kg/day
same,NEL,rat [10]; [28],5 mg/kg/day
same,NOAEL,rat [10]; [28],10 mg/kg/day
same,LEL,rat [10]; [27],10 mg/kg/day
same,LOAEL,mouse [11]; [29],19 mg/kg/day
same,NOAEL,mouse [11]; [29],< 19 mg/kg/day
same,LEL,mouse [11]; [30],19 mg/kg/day
same,NEL,mouse [11]; [30],< 19 mg/kg/day
same,LEL,rat [12],9 mg/kg/day
same,LOAEL,rat [12],9 mg/kg/day
same,NEL,rat [12],< 9 mg/kg/day
same,NOAEL,rat [12],< 9 mg/kg/day
same,LOAEL,rat [13]; [31],40 mg/kg/day
same,NOAEL,rat [13]; [31],20 mg/kg/day
same,LEL,rat [13]; [27],10 mg/kg/day
same,NEL,rat [13]; [27],< 10 mg/kg/day
same,LOAEL,mouse [14]; systemic / in life observation / body weight / body weight gain + systemic / in life observation / water consumption / water consumption,120 mg/kg/day
same,LEL,mouse [14]; [32],120 mg/kg/day
same,NEL,mouse [14]; [32],60 mg/kg/day
same,NOAEL,mouse [14]; [32],60 mg/kg/day
